US12486269B2 (Aconcagua Bio, Inc., priority 2024, dated 2025)

Legend:
Format in all cases: cell-based
[1] = molecular target: T1, COS-7/AMY3 (human calcitonin receptor (CTR) and RAMP3) (Homo sapiens, UniProt O60896+P30988); test: Amylin Receptor cAMP Assay I; details: values marked *: Amylin Receptor cAMP Assay I; COS-7/AMY3 cells, cAMP Hi-range kit, 30 min; read-out: Amylin Receptor cAMP Stimulation Activity: EC50
T1 construct: expressed in transfected cells; host or cells: COS-7
From the text: Amylin Receptor cAMP Assay I
AMYRs are heterodimers of the class B calcitonin (CT) G-protein-coupled receptor (CTR) and receptor activity-modifying proteins (RAMPs). All three RAMPs can interact with the CTR and form AMY1, AMY2, AMY3 with RAMP1, RAMP2 and RAMP3, respectively. Like other class B1 GPCRs, the CT receptor family is canonically coupled to Gs-mediated cAMP production, and measurement of cAMP accumulation has been the primary assay used to determine peptide selectivity and potency.
To optimize functional activity directed toward Gαs coupling, COS-7 cells were stably transfected with human calcitonin receptor (CTR) and RAMP3, simultaneously. 100×concentration of compound working solutions were prepared (Agilent Technologies Bravo) with 4-fold serial dilution in 384-well Echo LDV plate (Labcyte, Cat #LP-0200). 100 nL/well 100×concentration of compound working solutions were moved to 384-well white low volume plate (Greiner, Cat #784075) using Labcyte ECHO550. […]
After incubation, the cAMP assay signal was generated using cAMP Hi-range Kit (Cisbio). […] The samples were then incubated at room temperature for 1 hour protected from light. the fluorescence was read at 665 and 615 nm with Reader PerkinElmer EnVision. % Activity=100%×(mean RLU of test sample−mean RLU of vehicle control)/(mean RLU of MAX control−mean RLU of vehicle control)) Amylin Receptor cAMP Assay II

[2] = molecular target: T2, human calcitonin receptor (CTR) (Homo sapiens, UniProt P30988); test: Calcitonin Receptor (CTR) cAMP Assay; details: COS7-human CTR Clone #2 stable cell line, cAMP dynamic 2 kit, 30 min; read-out: Calcitonin Receptor cAMP Stimulation Activity: EC50
T2 construct: expressed in transfected cells; host or cells: COS-7 (COS7-human CTR Clone #2)
T2 sequence (P30988 25-474): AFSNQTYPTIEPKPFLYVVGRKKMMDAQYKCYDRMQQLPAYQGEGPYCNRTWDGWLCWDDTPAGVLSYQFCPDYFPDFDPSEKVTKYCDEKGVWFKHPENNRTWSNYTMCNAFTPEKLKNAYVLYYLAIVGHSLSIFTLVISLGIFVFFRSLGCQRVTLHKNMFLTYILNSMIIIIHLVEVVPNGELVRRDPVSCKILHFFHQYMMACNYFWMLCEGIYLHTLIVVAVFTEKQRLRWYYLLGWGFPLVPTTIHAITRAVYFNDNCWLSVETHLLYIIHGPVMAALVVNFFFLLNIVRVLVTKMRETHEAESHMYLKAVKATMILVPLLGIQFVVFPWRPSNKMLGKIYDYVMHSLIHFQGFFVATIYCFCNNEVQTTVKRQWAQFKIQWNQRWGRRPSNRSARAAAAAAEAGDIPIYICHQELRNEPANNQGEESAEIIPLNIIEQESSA
Outline: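 COS-7 cells stably expressing human CTR (2000 cells/well) were incubated 30 min at 37 °C with 4-fold serially diluted compound in HBSS/20 mM HEPES/0.5 mM IBMX/0.1% casein. cAMP was detected by HTRF (665/615 nm) after 1 h at RT. % activity was normalised to vehicle and positive controls.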

[3] = molecular target: T1, COS-7/AMY3 (human calcitonin receptor (CTR) and RAMP3); test: Amylin Receptor cAMP Assay II; details: values marked **: Amylin Receptor cAMP Assay II; COS-7/AMY3 cells, cAMP dynamic 2 kit, 30 min; read-out: Amylin Receptor cAMP Stimulation Activity: EC50
Outline: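 COS-7 cells stably co-expressing human CTR and RAMP3 (AMY3), 2000 cells/well in HBSS with 20 mM HEPES, 0.5 mM IBMX, 0.1% casein, stimulated with compound for 30 min at 37 °C. cAMP measured by HTRF (665/615 nm), activity normalized between vehicle and maximal control.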

T1 sequence (O60896 24-148, one chain of several): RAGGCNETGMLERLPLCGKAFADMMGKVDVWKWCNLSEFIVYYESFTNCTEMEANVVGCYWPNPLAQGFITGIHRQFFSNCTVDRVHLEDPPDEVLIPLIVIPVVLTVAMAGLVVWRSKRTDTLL

EC50 [1] [nM] | EC50 [2] [nM] | EC50 [3] [nM] | SMILES
121 | 2.42 | – | COc1cccc2c1CC[C@H]2NC(=O)c1ccc(-c2c3c(nc(CCc4ccc(F)cc4)c2-c2noc(=O)[nH]2)[C@@H]2CCCN2C3=O)s1 [Compound 108, 5-((S)-2-(4-fluorophenethyl)-5-oxo-3-(5-oxo-4,5-dihydro-1,2,4-oxadiazol-3-yl)-7,8,9,9a-tetrahydro-5H-pyrido[2,3-a]pyrrolizin-4-yl)-N—((R)-4-methoxy-2,3-dihydro-1H-inden-1-yl)thiophene-2-carboxamide]
– | 7.28 | 82.8 | COc1cccc2c1CC(F)(F)[C@@H]2Nc1nccc2cc(-c3c4c(nc(CCc5ccc(F)cc5)c3-c3n[nH]c(=O)o3)[C@@H]3CCCN3C4=O)sc12 [Compound 251, 5-((S)-4-(7-(((R)-2,2-difluoro-4-methoxy-2,3-dihydro-1H-inden-1-yl)amino)thieno[2,3-c]pyridin-2-yl)-2-(4-fluorophenethyl)-5-oxo-7,8,9,9a-tetrahydro-5H-pyrido[2,3-a]pyrrolizin-3-yl)-1,3,4-oxadiazol-2(3H)-one]

Further lines, the compound ahead of its results:

SMILES | EC50 [1] [nM] | EC50 [2] [nM] | EC50 [3] [nM]
COc1c(F)ccc2c1CC[C@H]2Nc1ccnc2cc(-c3c4c(nc(CCc5ccc(F)cc5)c3-c3n[nH]c(=O)o3)C35CC(CN3C4=O)C5)sc12 [Compound 271, (R)-5-(4-(7-((5-fluoro-4-methoxy-2,3-dihydro-1H-inden-1-yl)amino)thieno[3,2-b]pyridin-2-yl)-2-(4-fluorophenethyl)-5-oxo-8,9-dihydro-5H,7H-8,9a-methanopyrido[2,3-a]pyrrolizin-3-yl)-1,3,4-oxadiazol-2(3H)-one] | – | 0.178 | 3.13
CC(c1ccc(C#N)c(F)c1)n1ccc2cc(-c3c(-c4n[nH]c(=O)o4)c(CCc4ccc(F)cc4)nc4c3c(=O)n3n4CCC3)ccc21 (stereo not shown) [Compound 159, 2-fluoro-4-[1-[5-[11-[2-(4-fluorophenyl)ethyl]-7-oxo-10-(2-oxo-3H-1,3,4-oxadiazol-5-yl)-2,6,12-triazatricyclo[6.4.0.02,6]dodeca-1(8),9,11-trien-9-yl]indol-1-yl]ethyl]benzonitrile] | – | 1.17 | 28.7
O=C1c2c(nc(CCc3ccc(F)cc3)c(-c3n[nH]c(=O)o3)c2-c2cnc3c(ccn3Cc3ncc(F)cc3F)c2)[C@@H]2CCCN12 [Compound 210, (S)-5-(4-(1-((3,5-difluoropyridin-2-yl)methyl)-1H-pyrrolo[2,3-b]pyridin-5-yl)-2-(4-fluorophenethyl)-5-oxo-7,8,9,9a-tetrahydro-5H-pyrido[2,3-a]pyrrolizin-3-yl)-1,3,4-oxadiazol-2(3H)-one] | – | 23 | 467
